# Measurements from patent publication US4435392A, “2,5-Benzodiazocine derivatives and salts thereof, as well as pharmaceutical agent comprising as effective component at least one of the derivatives and salts” (Sanwa Kagaku Kenkyusho Co. Ltd., priority 1982, dated 1984).
# Experiments:
# [1] = system: dd-male mice; assay: Analgetic action, Haffner's Method (tail root clamping); assay type: in vivo; settings: Mus musculus, ip, abdominal cavity, hydrochloride
# Protocol: In accordance with a usual manner, dd-male mice of 14 to 22 g were classified into groups, each having 10 mice, compounds to be tested in various concentrations were given to each mouse and then clamped a tail root of the mouse with use of Koffer clamps in each time period of having lapsed 15, 30, 45 and 60 minutes from the dosage to measure an analgetic action of the compounds by judging as "negative" when the tested mouse cries or looks back.
# Further the number of deaths was counted in each 10 mice group after having lapsed 2 hours from dosage of each testing agent into abdominal cavity and then ED50, LD50 and 95% confidence limit were calculated based on the Richfield and Wilcoxson Methods to compare the results obtained on the agents.
# [2] = system: dd-male mice; assay: Analgetic action, Acetic Acid Stretching Method; assay type: in vivo; settings: Mus musculus, po, orally given 30 minutes before acetic acid, hydrochloride
# Protocol: (ii) Acetic Acid Stretching Method
# The dd-male mice of 17 to 23 g were classified into groups, each having 10 mice, and 0.7% aqueous solution of acetic acid was dosed into abdominal cavity for each mouse in a ratio of 10 ml/kg and then a stretching condition was observed over 5 minutes of having lapsed 10 to 15 minutes from the dosage. The test was repeated 4 times to obtain total measured value and an inhibition ratio was measured from number of stretching actions. A judgement has been given in "Yes" or "No" system.
# According to the Richfield and Wilcoxson Methods, ED50, LD50 and 95% confidence limit were calculated and compared the same for each testing agents and Control.
# Each testing agent and control was orally given 30 minutes before the dosage of the acetic acid in a ratio of 100 mg/10 ml/kg.
# [3] = system: Wister type male rats; assay: Antipyretic Action (rectal body temperature); assay type: in vivo
# Protocol: Wister type male rats of 100 to 140 g were classified into groups, each having 4 to 5 rats. The rats were abstrained from food for 1 day and then each rat was entered in each cage. The body temperature was measured under a constant room temperature through the rectum. This body temperature measurement was carried out in 3 times before a dosage of agents as well as after lapsed 30, 60, 90, 120 and 150 minutes from the dosage.
# Judgements have been given based on following 5 measures.
# [4] = system: dd-type male mice; assay: Effect on Sleep (pentobarbital sleeping time); assay type: in vivo; settings: pentobarbital 40 mg/kg
# Protocol: The dd-type male mice of 16 to 24 g were classified into groups, each having 10 mice. To each mouse, a testing agent was dosed through abdominal cavity and after having lapsed 30 minutes from the dosage, 40 mg/kg of pentobarbital was also dosed through abdominal cavity to measure a time of sleeping period. The sleeping time in question designates a time period, wherein a facing reflex disappears. Judgements were given based on following 7 measures.
# [5] = Acute Toxity, rat; settings: in vivo
# Protocol: (§1) The dd-type 5 weeks male mice of 21 to 26 g and Wister type 5 weeks male rats of 110 to 150 g were classified into groups, each having 10 mice or rats. After having given testing agents to the mice and rats, general conditions, number of deaths in each day and body weight changes have been observed over 7 days. An LD50 value was calculated based on total number of deaths during the 7 days testing time period, in accordance with the Richfield-Wilcoxson Method. The surviving animals were dissected to visually observe internal organs thereof.
# [6] = Acute Toxity, mouse; settings: in vivo
# Protocol: as §1
# [7] = system: dd-type male mice; assay: Effect on Sleep (pentobarbital sleeping time); assay type: in vivo; settings: pentobarbital 40 mg/kg; remark: listed apart in the source
# [8] = in abdominal cavity 50 mg/Kg, hydrochloride
# [9] = intravenous injectional dosage, 7 days
# [10] = ip, in abdominal cavity, 7 days
# [11] = in abdominal cavity 25 mg/Kg (control)
compound,measurement,setting,value
"COc1ccc(C2NCCN(CCCC(=O)c3ccc(F)cc3)Cc3ccccc32)cc1 (stereo not drawn) [Compound I-f, 5-[3-(p-fluorobenzoyl)propyl]-1,2,3,4,5,6-hexahydro-1-(p-methoxyphenyl)-2,5-benzodiazocine]",ED50,[1],30.7 mg/kg
same,ED50,[2],11.5 mg/kg
same,Antipyretic Action,[3]; [8],++ (showing decrease of 1° to 2 °C and obtaining at least one result of a notifiable difference of P<1%)
same,Sleep Incrementing Action,[4]; in abdominal cavity 50 mg/Kg,+++ (sleeping time was extended by 60 minutes or more in comparison with control)
same,LD50 at 168 h,[5]; [9],19.8 mg/kg
same,LD50 at 168 h,"[5]; oral dosage, 7 days",2890 mg/kg
same,LD50 at 168 h,[6]; [9],35.9 mg/kg
same,LD50 at 168 h,[6]; [10],109 mg/kg
same,LD50 at 168 h,"[6]; oral dosage, 7 days",340 mg/kg
same,Sleep Incrementing Action,[7]; oral dosage 100 mg/Kg,+++ (sleeping time was extended by 60 minutes or more in comparison with control)
"CN1CCOC(c2ccccc2)c2ccccc2C1 (stereo not drawn) [Nefopam, reference compound]",Antipyretic Action,[3]; [11],++ (showing decrease of 1° to 2 °C and obtaining at least one result of a notifiable difference of P<1%)
same,Sleep Incrementing Action,[4]; [11],-- (sleeping time was shortened by 30 to 60 minutes in comparison with control)
same,LD50 at 168 h,[5]; [9],18 mg/kg
same,LD50 at 168 h,"[5]; oral dosage, 7 days",595 mg/kg
same,LD50 at 168 h,[6]; [9],36.8 mg/kg
same,LD50 at 168 h,[6]; [10],72.4 mg/kg
same,LD50 at 168 h,"[6]; oral dosage, 7 days",356 mg/kg
same,Sleep Incrementing Action,[7]; oral dosage 50 mg/Kg (control),-- (sleeping time was shortened by 30 to 60 minutes in comparison with control)
"c1ccc(C2NCCN(CC3CC3)Cc3ccccc32)cc1 (stereo not drawn) [Compound I-d, 5-cyclopropylmethyl-1,2,3,4,5,6-hexahydro-1-phenyl-2,5-benzodiazocine]",ED50,[1],17.1 mg/kg
same,ED50,[2],13.5 mg/kg
same,Antipyretic Action,[3]; [8],++ (showing decrease of 1° to 2 °C and obtaining at least one result of a notifiable difference of P<1%)
same,Sleep Incrementing Action,[4]; in abdominal cavity 50 mg/Kg,-- (sleeping time was shortened by 30 to 60 minutes in comparison with control)
same,LD50 at 168 h,[5]; [9],17.8 mg/kg
same,LD50 at 168 h,"[5]; oral dosage, 7 days",485 mg/kg
same,LD50 at 168 h,[6]; [9],18 mg/kg
same,LD50 at 168 h,[6]; [10],51.6 mg/kg
same,LD50 at 168 h,"[6]; oral dosage, 7 days",215 mg/kg
same,Sleep Incrementing Action,[7]; oral dosage 100 mg/Kg,-- (sleeping time was shortened by 30 to 60 minutes in comparison with control)
"COc1ccc(C2c3ccccc3CN(CCCC(=O)c3ccc(F)cc3)CCN2C)cc1 (stereo not drawn) [Compound I-a, 5-[3-(p-fluorobenzoyl)propyl]-1,2,3,4,5,6-hexahydro-1-(p-methoxyphenyl)-2-methyl-2,5-benzodiazocine]",ED50,[1],18.4 mg/kg
same,ED50,[2],40.5 mg/kg
same,Antipyretic Action,[3]; [8],++ (showing decrease of 1° to 2 °C and obtaining at least one result of a notifiable difference of P<1%)
same,Sleep Incrementing Action,[4]; in abdominal cavity 50 mg/Kg,++ (sleeping time was extended by 30 to 60 minutes in comparison with control)
same,LD50 at 168 h,[5]; [9],20 mg/kg
same,LD50 at 168 h,"[5]; oral dosage, 7 days",3500 mg/kg
same,LD50 at 168 h,[6]; [9],30.1 mg/kg
same,LD50 at 168 h,[6]; [10],179 mg/kg
same,LD50 at 168 h,"[6]; oral dosage, 7 days",1500 mg/kg
same,Sleep Incrementing Action,[7]; oral dosage 100 mg/Kg,+++ (sleeping time was extended by 60 minutes or more in comparison with control)
"CCOC(=O)/C=C/C(=O)Nc1ccc(CCN2CCNC(c3ccccc3)c3ccccc3C2)cc1 (stereo not drawn) [Compound I-e, [5(E)]-ethyl-4-[[4-[2-(1,2,3,4,5,6-hexahydro-1-phenyl-2,5-benzodiazocine)-5-yl]ethyl]phenyl]amino-4-oxo-2-butenoate]",ED50,[1],80.3 mg/kg
same,ED50,[2],61.1 mg/kg
same,Antipyretic Action,[3]; [8],++ (showing decrease of 1° to 2 °C and obtaining at least one result of a notifiable difference of P<1%)
same,Sleep Incrementing Action,[4]; in abdominal cavity 50 mg/Kg,-- (sleeping time was shortened by 30 to 60 minutes in comparison with control)
same,LD50 at 168 h,[5]; po,> 5000 mg/kg
same,LD50 at 168 h,[6]; ip,> 200 mg/kg
same,LD50 at 168 h,[6]; po,938 mg/kg
same,Sleep Incrementing Action,[7]; oral dosage 100 mg/Kg,++ (sleeping time was extended by 30 to 60 minutes in comparison with control)
"COc1ccc(CCN2CCN(C)C(c3ccc(OC)cc3)c3ccccc3C2)cc1 (stereo not drawn) [Compound I-b, 5-(p-methoxyphenethyl)-1,2,3,4,5,6-hexahydro-1-(p-methoxyphenyl)-2-methyl-2,5-benzodiazocine]",ED50,[1],26.2 mg/kg
same,ED50,[2],48.5 mg/kg
same,Antipyretic Action,[3]; [8],++ (showing decrease of 1° to 2 °C and obtaining at least one result of a notifiable difference of P<1%)
same,Sleep Incrementing Action,[4]; in abdominal cavity 50 mg/Kg,+++ (sleeping time was extended by 60 minutes or more in comparison with control)
same,LD50 at 168 h,[5]; [9],20.7 mg/kg
same,LD50 at 168 h,"[5]; oral dosage, 7 days",4090 mg/kg
same,LD50 at 168 h,[6]; [9],33 mg/kg
same,LD50 at 168 h,[6]; [10],124 mg/kg
same,LD50 at 168 h,"[6]; oral dosage, 7 days",623 mg/kg
same,Sleep Incrementing Action,[7]; oral dosage 100 mg/Kg,+++ (sleeping time was extended by 60 minutes or more in comparison with control)
"CN1CCN(CCCC(=O)c2ccc(F)cc2)Cc2ccccc2C1c1ccccc1 (stereo not drawn) [Compound I-c, 5-[3-(p-fluorobenzoyl)propyl]-1,2,3,4,5,6-hexahydro-1-phenyl-2-methyl-2,5-benzodiazocine]",ED50,[1],44.2 mg/kg
same,ED50,[2],5.7 mg/kg
same,Antipyretic Action,[3]; [8],++ (showing decrease of 1° to 2 °C and obtaining at least one result of a notifiable difference of P<1%)
same,Sleep Incrementing Action,[4]; in abdominal cavity 50 mg/Kg,+++ (sleeping time was extended by 60 minutes or more in comparison with control)
same,LD50 at 168 h,[5]; [9],23.8 mg/kg
same,LD50 at 168 h,"[5]; oral dosage, 7 days",> 4000 mg/kg
same,LD50 at 168 h,[6]; [9],29 mg/kg
same,LD50 at 168 h,[6]; [10],208 mg/kg
same,LD50 at 168 h,"[6]; oral dosage, 7 days",1700 mg/kg
same,Sleep Incrementing Action,[7]; oral dosage 100 mg/Kg,+++ (sleeping time was extended by 60 minutes or more in comparison with control)
